From publication PMC8727943, “Identification and characterization of a novel glutaminase inhibitor” (FEBS Open Bio, 2021)
Where “and” joins values, the source holds several entries; their conditions need not be identical. Equal values may be shown once. Entries after “also recorded” stand apart in the source; their conditions may differ. Read-outs that look alike come from different tables or passages of the source.

Tests used:
[1] = system: anti-CD3/CD28-induced CD4+ T cells; conditions: cited from earlier work
human CD4+ T cells = assay: CFSE-based anti-CD3/CD28-induced CD4+ T-cell proliferation assay; conditions: for percentage of proliferating cells (CFSE dilution), mean: compound 25 µM, anti-CD3/CD28 beads 1:1, 96 h, stimulated control 71.70% ± 1.60
Description: Human CD4+ T cells were isolated from buffy coats of healthy donors (obtained from Blodbanken, Oslo, Norway) using the Dynabeads CD4 Positive Isolation Kit (Life Technologies AS, Norway) according to the manufacturer's protocol. […] After 4 days of incubation, beads were removed; cells were washed with 1x PBS, and T‐cell proliferation was assessed by measuring the CFSE dilution using flow cytometry.

GLS1 = conditions: cited from earlier work; for potency of GLS1 inhibition in vitro: varying with cell types; for fold increased inhibitory efficiency compared with DON and BPTES: GLS inhibitors
[2] = molecular target: T1, recombinant human glutaminase Δ129GAC (Homo sapiens, UniProt O94925); assay: Coupled GLS/GDH enzyme assay (HTS and dose response), NADH readout; type: biochemical; conditions: for IC50: 10-point dose response, twofold serial dilution 0.39–200 µM, nonlinear curve fitting, read-out: IC50 for Δ129GAC inhibition; for inhibition at 10 µM: HTS, compound 10 µM, read-out: inhibition of Δ129GAC, positive hits of HTS counter screen; for inhibition of His-Δ129GAC reached in the dose response: dose response 0.39–200 µM
T1 construct: to generate peptides from amino acids 17‐598 and 73‐598 and 130‐598, respectively; made in house; host or cells: Escherichia coli BL21DE3 Rosetta (pRARE)
T1 sequence (O94925 130-598 isoform O94925-3): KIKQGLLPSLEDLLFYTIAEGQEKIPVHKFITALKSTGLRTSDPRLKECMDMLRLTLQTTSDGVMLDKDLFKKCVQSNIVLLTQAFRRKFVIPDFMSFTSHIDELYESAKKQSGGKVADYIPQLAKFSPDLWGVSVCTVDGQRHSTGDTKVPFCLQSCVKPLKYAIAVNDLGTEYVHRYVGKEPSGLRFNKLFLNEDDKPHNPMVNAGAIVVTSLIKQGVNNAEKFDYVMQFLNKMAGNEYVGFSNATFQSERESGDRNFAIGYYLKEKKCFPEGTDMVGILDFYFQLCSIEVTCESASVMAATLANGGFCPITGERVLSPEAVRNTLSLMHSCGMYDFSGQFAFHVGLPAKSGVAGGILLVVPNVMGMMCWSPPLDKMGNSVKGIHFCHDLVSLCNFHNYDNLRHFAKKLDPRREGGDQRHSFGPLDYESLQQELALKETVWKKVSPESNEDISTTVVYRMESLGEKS
Description: The assay used to determine GLS activity for HTS and enzyme kinetics measurements was adapted from Cassago et al.. In brief, this assay determines the activity of GLS by measuring the amount of NADH produced by glutamate dehydrogenase (GDH) when converting glutamate to α‐ketoglutarate. […] For HTS, the enzyme assay was run using the following conditions: 6 nM Δ129GAC, 50 mM Tris‐acetate, pH 8.6, 3 units of bovine serum GDH (Sigma‐Aldrich), 2 mM NAD^+ (Roche, Basel, Switzerland), 4 mM glutamine, 50 mM K2PO4 (MERCK, Kenilworth, NJ, USA) and 0.005% Tween‐20 (Sigma‐Aldrich). […] 10 nL of each compound was applied to the wells using an ECHO 550 liquid handler (Labcyte, Sunnyvale, CA, USA) followed by dispensing and mixing of 5 µL enzyme assay mix (Hamilton Microlab Star, Reno, NV, USA). This mix was incubated at room temperature for 1 h. Columns 23 and 24 on the plate contained wells for positive and negative controls to determine Z‐factor values. Z‐factor value was calculated based on formula 1: Formula1:[…] σp is the SD of the positive control, σn is the SD of the negative control, µp is the mean of the positive control and µn is the mean of the negative control. Following 1‐h incubation, 5 µL of glutamine (final concentration 4 mM) was added.
To become enzymatically active, the first 16 and 72 amino acids at the N‐terminal must be sequentially deleted in the mitochondria from endogenous GLSGAC [6]. We cloned and expressed three variants of GAC, Δ16GAC, Δ72GAC and Δ129GAC (Fig. 1A,B). […] Next, Δ129GAC PCR product was cloned into pET‐24(b) which contained DNA encoding sequence for a His‐tag. […] Using His‐Δ129GAC, a HTS GAC enzyme activity assay was modified according to Cassago et al.. Briefly, the assay is a two‐step enzymatic assay where glutamine converted to glutamate by His‐Δ129GAC and further to α‐ketoglutarate and NADH by GDH (Fig. 1D). The glutamine consumption activity of His‐Δ129GAC was determined by assuming a stoichiometric ratio of one glutamine consumed to every molecule of NADH produced.

[3] = system: cytokine production of anti-CD3/CD28-stimulated CD4+ T cells; assay: Luminex screening assay of cytokines in T-cell culture supernatants; type: cell-based, human; conditions: compound 25 µM, day 3, normalized to stimulated control
Description: Supernatants from T‐cell cultures were harvested after 3 days of stimulation and stored at −20 °C. Samples were diluted twofold, and the human magnetic luminex screening assay (R&D Systems, Minneapolis, MN, USA) for TNF‐α, IL‐6, IL‐10, INF‐g, IL‐4, IL‐17α, IL‐2 was performed according to manufacturer’s instructions. Data were analysed with Milliplex Analyst (Merck Millipore) and standard curves set according to manufacturer's recommendations.

[4] = molecular target: T1, recombinant human glutaminase Δ129GAC; assay: Steady-state kinetic analysis of Δ129GAC in the presence of C19; type: biochemical
Description: […] of NADH in the HTS was measured at 340 nm after 5 min, and quantification was done by using the extinction coefficient for NADH of 6220 M^−1·cm^−1 and 7.7 mm of path length. The total reaction volume was 80 µL, and the measurements were performed on a FluoStar Optima (BMB Labtech, Ortenberg, Germany) microplate reader. The experiments were done in 5 replicates at 12 different substrate concentrations ranging from 0.39 to 50 mM. The kinetics were determined at compound concentrations of 16, 25 and 30 µM.

His-Δ129GAC = molecular target: T2, His-Δ129GAC (Homo sapiens, UniProt O94925); assay: Microscale thermophoresis (MST), labelled and nonlabelled; type: binding; conditions: 25 °C
T2 construct: to generate peptides from amino acids 17‐598 and 73‐598 and 130‐598, respectively; made in house; host or cells: Escherichia coli BL21DE3 Rosetta (pRARE)
T2 sequence (O94925 130-598 isoform O94925-3): T1 sequence (O94925 130-598 isoform O94925-3)
Description: For the nonlabelled microscale thermophoresis (MST) assay, a 16‐point titration series of compound was done in a protein concentration of 100 nM Δ129GAC. […] Samples were loaded into Zero Background MST Premium Coated Capillaries, and measurements were done with a Monolith NT Label‐Free instrument (NanoTemper) at 25 °C using 20% MST power and 20% excitation power. […] For labelled analyses, MST Premium Coated Capillaries were used. The experiments were performed in duplicates and data presented as mean values ± standard deviation (SD). Data were normalized and nonlinear curve fitted using […] PRISM version 6 (La Jolla, CA, USA).

MDA-468 TNBC cells = assay: Thymidine incorporation proliferation assay, MDA-468; type: cell-based; conditions: 72 h, read-out: IC50 proliferation MDA-468, thymidine incorporation after 72 h
MDA-231 TNBC cells = assay: Thymidine incorporation proliferation assay, MDA-231; type: cell-based; conditions: Homo sapiens, MDA-MB-231, 72 h, read-out: IC50 proliferation MDA-231
[5] = molecular target: T3, glutamate dehydrogenase (GDH) (Bos taurus, UniProt P00366); assay: GDH counter assay (secondary enzyme of the coupled assay); type: biochemical, bovine
T3 construct: purchased Sigma‐Aldrich
T3 sequence (P00366 58-558): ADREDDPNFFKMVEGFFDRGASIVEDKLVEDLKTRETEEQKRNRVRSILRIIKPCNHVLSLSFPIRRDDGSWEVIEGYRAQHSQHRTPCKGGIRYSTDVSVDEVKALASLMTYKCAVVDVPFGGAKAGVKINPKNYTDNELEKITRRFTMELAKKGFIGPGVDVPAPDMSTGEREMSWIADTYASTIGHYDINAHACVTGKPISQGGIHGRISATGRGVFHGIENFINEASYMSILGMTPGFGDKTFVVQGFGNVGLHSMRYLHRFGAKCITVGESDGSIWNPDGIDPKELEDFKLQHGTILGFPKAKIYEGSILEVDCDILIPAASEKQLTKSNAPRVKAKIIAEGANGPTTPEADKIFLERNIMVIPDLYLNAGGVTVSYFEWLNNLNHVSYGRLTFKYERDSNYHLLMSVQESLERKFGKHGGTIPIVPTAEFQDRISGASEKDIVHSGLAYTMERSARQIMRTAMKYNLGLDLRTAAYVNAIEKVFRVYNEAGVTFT

cells = system: cells; design: method as in PMID 909432, PMID 4587126; conditions: cited from earlier work
[6] = design: method as in PMID 30148361; conditions: cited from earlier work
[7] = design: method as in PMID 30148361; conditions: cited from earlier work; remark: listed apart in the source

Structure (SMILES): O=C(Cc1ccccc1)Nc1nnc(CCSCCc2nnc(NC(=O)Cc3ccccc3)s2)s1 [BPTES, bis‐2‐(5‐phenylacetamido‐1,3,4‐thiadiazol‐2yl)ethyl sulfide]
- inhibition of cytokine production, active range [1]: high micromolar range
- percentage of proliferating cells (CFSE dilution), mean (human CD4+ T cells): 15.03%

Structure (SMILES): Sc1nc(-c2ccccc2)cn1N=Cc1ccncc1 [C2]
- inhibition of CD3/CD28-induced CD4+ T-cell proliferation (human CD4+ T cells): not
- IC50 [2]: 2.3 µM
- inhibition at 10 µM [2]: ≥ 50%
- inhibition of His-Δ129GAC reached in the dose response [2]: did not inhibit Δ129GAC activity by 100%; also recorded: incapable of completely inhibiting

Structure (SMILES): Cc1ccc(-c2nnc3n2CCCCC3)cc1NC(=O)Cc1sc(S)nc1C [C15]
- inhibition of CD3/CD28-induced CD4+ T-cell proliferation (human CD4+ T cells): not
- IC50 [2]: 5.7 µM
- inhibition at 10 µM [2]: ≥ 50%
- inhibition of His-Δ129GAC reached in the dose response [2]: incapable of completely inhibiting
- inhibition of His-Δ129GAC reached in the dose response ([2]; listed as 15): did not inhibit Δ129GAC activity by 100%

Structure (SMILES): O=C(NCCNc1nc2ccccc2s1)c1cccnc1S [C19]
- IC50 (human CD4+ T cells; Homo sapiens, CD4+ T cell): 11 µM
- percentage of proliferating cells (CFSE dilution), mean (human CD4+ T cells): 9.16%
- levels of TNF-α, IL-10, IL-2, IL-6, INF-γ, IL-17A and IL-4 in supernatants [3]: significant decrease; also recorded: significantly better than BPTES
- mode of inhibition with respect to the substrate ([4]; C19 0, 16, 25, 30 µM): noncompetitive inhibitor; also recorded: noncompetitive inhibition
- effect on Km of His-Δ129GAC ([4]; C19 0–30 µM): not significantly affected
- K cat ([4]; [I] 16 µM C19): 23.03 ± 0.6245 s⁻¹
- V max ([4]; [I] 16 µM C19, 6 nM Δ129GAC): 44.22 ± 1.1990 pmol/s
- K cat ([4]; [I] 25 µM C19): 16.46 ± 0.6640 s⁻¹
- V max ([4]; [I] 25 µM C19, 6 nM Δ129GAC): 31.59 ± 1.2750 pmol/s
- K cat ([4]; [I] 30 µM C19): 12.31 ± 0.2425 s⁻¹
- V max ([4]; [I] 30 µM C19, 6 nM Δ129GAC): 23.63 ± 0.47 pmol/s and 23.63 ± 0.4655 pmol/s
- Kd (His-Δ129GAC; 100 nM nonlabelled Δ129GAC, C19 0–1000 µM, read-out: Kd, nonlabelled MST): 20 ± 4.8 µM
- Kd (His-Δ129GAC; NT-647-labelled Δ129GAC 25 nM, read-out: Kd, labelled MST): 14.7 µM
- IC50 [2]: 6.8 µM
- inhibition at 10 µM [2]: ≥ 50%

Structure (SMILES): O=C(Cc1cccc(OC(F)(F)F)c1)Nc1ccc(CCCCc2nnc(NC(=O)Cc3ccccn3)s2)nn1 [CB839, Telaglenastat]
- IC50 (MDA-468 TNBC cells): 0.0112 µM
- IC50 (MDA-231 TNBC cells): 0.00019 µM
- effect on GDH activity ([5]; 30 nM CB839, measured after 20 min, glutamate as substrate): no effect on GDH activity; also recorded: no inhibition effect
- effect on GDH activity ([5]; 10 µM CB839 for 2 h): did not influence GDH activity

Structure (SMILES): [N-]=[N+]=CC(=O)CC[C@H](N)C(=O)O [DON, 6‐diazo‐5‐oxonorleucine]
- off-target toxicity to cells (cells): toxic to cells

Structure (SMILES): CN1CCc2cccc3c2[C@H]1Cc1ccc(O)c(O)c1-3 [apomorphine]
- fold increased inhibitory efficiency compared with DON and BPTES (GLS1): over 100 fold

Structure (SMILES): COc1ccc2c(c[n+](C)c3c4cc5c(cc4ccc23)OCO5)c1OC [chelerythrine]
- fold increased inhibitory efficiency compared with DON and BPTES (GLS1): over 100 fold

Structure (SMILES): CN(C)c1ccc(C2Nc3ccc4ccccc4c3C3=C2C(=O)CC(C)(C)C3)cc1Br (stereo not shown) [compound 968, 5‐(3‐Bromo‐4‐(dimethylamino)phenyl)‐2,2‐dimethyl‐2,3,5,6‐tetrahydrobenzo[a]phenanthridin‐4(1H)‐one]
- metabolic stability [6]: poor
- potency of GLS1 inhibition in vitro (GLS1): 2.5 µM
- aqueous solubility [7]: poor

Structure (SMILES): O=c1c2ccccc2[se]n1-c1ccccc1 [ebselen]
- fold increased inhibitory efficiency compared with DON and BPTES (GLS1): over 100 fold
